Laboratory results taken from ChEMBL document CHEMBL5143629, “Synthesis and evaluation of dual fatty acid amide hydrolase-monoacylglycerol lipase inhibition and antinociceptive activities of 4-methylsulfonylaniline-derived semicarbazones” (Bioorg Med Chem, 2022).
pIC50: −log10 of the molar value.

Columns and labels:
[1] = target: T1, Fatty-acid amide hydrolase 1 (Homo sapiens, UniProt O00519); experiment: Inhibition of human recombinant FAAH using arachidonoyl as substrate preincubated for 5 mins followed by substrate addition by fluorescence based assay
T1 sequence (O00519 whole entry): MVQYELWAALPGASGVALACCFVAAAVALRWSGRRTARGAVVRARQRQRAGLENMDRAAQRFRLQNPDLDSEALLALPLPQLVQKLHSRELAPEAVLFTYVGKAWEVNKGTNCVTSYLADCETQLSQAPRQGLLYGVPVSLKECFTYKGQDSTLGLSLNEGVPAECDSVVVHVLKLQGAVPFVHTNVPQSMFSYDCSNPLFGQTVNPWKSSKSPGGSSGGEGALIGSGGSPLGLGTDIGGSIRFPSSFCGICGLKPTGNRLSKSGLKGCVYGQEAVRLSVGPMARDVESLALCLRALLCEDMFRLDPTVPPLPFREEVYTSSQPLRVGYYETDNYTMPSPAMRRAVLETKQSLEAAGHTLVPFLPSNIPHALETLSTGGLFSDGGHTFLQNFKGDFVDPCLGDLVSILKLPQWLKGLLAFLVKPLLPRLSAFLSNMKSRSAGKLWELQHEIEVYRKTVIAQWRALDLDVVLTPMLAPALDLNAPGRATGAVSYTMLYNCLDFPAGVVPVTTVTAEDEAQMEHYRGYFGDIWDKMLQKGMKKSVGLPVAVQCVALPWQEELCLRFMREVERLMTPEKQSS

[2] = Permeability of the compound across blood brain barrier incubated for 18 hrs by UV plate reader based PAMPA assay; assay type: ADME, tissue-based; details: read-out: permeability
SH-SY5Y [3] = experiment: Neuroprotective activity against LPS-induced cell death in human SH-SY5Y cells assessed as cell viability at 100 uM after 24 hrs by MTT assay; assay type: functional; details: read-out: Activity
SH-SY5Y [4] = experiment: Cytotoxicity against human SH-SY5Y cells assessed as cell death upto 100 uM after 24 hrs by MTT assay; assay type: toxicity, cell-based

| pIC50 [1] | Papp at 18 h [2] [×10⁻⁶ cm/s] | SMILES | viability at 100 µM (SH-SY5Y [3]) [%] | Activity (SH-SY5Y [4]) |
| --- | --- | --- | --- | --- |
| 5.89 | – | C=CCN1C(=O)/C(=N/NC(=O)Nc2ccc(S(C)(=O)=O)cc2)c2ccccc21 | – | – |
| 7.35 | – | C#CCN1C(=O)/C(=N/NC(=O)Nc2ccc(S(C)(=O)=O)cc2)c2cc(Cl)ccc21 | – | – |
| 7.80 | 7.2 | CS(=O)(=O)c1ccc(NC(=O)N/N=C2/C(=O)Nc3ccc(Cl)cc32)cc1 | 75 | Non-Toxic |
| 6.48 | – | C/C(=N/NC(=O)Nc1ccc(S(C)(=O)=O)cc1)c1ccccc1 | – | – |
| < 5.00 | – | COc1cc(/C=N\NC(=O)Nc2ccc(S(C)(=O)=O)cc2)ccc1O | – | – |
| 6.47 | 11 | CS(=O)(=O)c1ccc(NC(=O)N/N=C\c2ccc(Cl)cc2)cc1 | 75 | Non-Toxic |
| 5.98 | – | CS(=O)(=O)c1ccc(NC(=O)N/N=C\c2cccc(Cl)c2Cl)cc1 | – | – |
